Patent publication US11667784B2, “Copolymers including cinchona alkaloid components and one or more acrylamide or acrylate containing components, complexes containing the same, and methods of using the” (REGENTS OF THE UNIVERSITY OF MINNESOTA, priority 2017, dated 2023)

How the values were obtained:
HeLa cells = format: cell-based, human
Excerpt: Transfection with the acrylate copolymer poly(HEA-co-acrylate), however, provided more promising results. […] Transfection studies with the HEA copolymer will continue at higher N/P ratios in hope of achieving transfection efficiency similar to that of PEI while maintaining limited toxicity.

[1] = cited from earlier work
plasmid DNA = test: DNA binding by gel electrophoresis (gel shift assay); details: plasmid DNA 4.7 kb, equivalent molar ratios to HEA-quinine copolymer
Experimental: DNA Binding Studies by Gel Electrophoresis. After the 1 hour incubation period, the polyplex solutions of all N/P ratios (10 μL) were each mixed with a 30% glycerol solution in water (2 μL). The solutions were loaded into 0.6% agarose gel containing ethidium bromide (6 μL/100 mL TAE buffer) and run at 60 V for 60 minutes. The gel was visualized under UV transilluminator (λ=366 nm).
The first step in this process is to mix the polymer and pDNA together to form the polyplex. […] Once combined, the solution is left to incubate at room temperature for 1 hour. Polyplexes are formed with varying concentrations of polymer to DNA which are expressed by their N/P ratio. The N/P ratio expresses the molar ratio of cationic amine groups on the polymer (N) over the number of anionic phosphate groups of the DNA backbone (P). […]
Upon a slow addition of an aqueous polymer solution to an aqueous DNA solution (0.02 μg/μL) at a 1:1 v/v ratio, the polymer and DNA self-assemble to form polyplexes. The target concentration of the polymer in the polyplex solution was determined by the target N/P ratio which is the molar ratio of cationic amine groups on the polymer (N) to anionic phosphate groups of the DNA backbone (P). […]

poly(HEA-co-quinine) [HEA copolymer]
toxicity (qualitative inspection) (HeLa cells): much less toxic

C=C(C)C(=O)NCCN [AEMA, N-(2-aminoethyl) methacrylamide]
pKa of basic amine ([1]; basic tertiary amine of chloroquine and quinine, amine of AEMA): 9.3

C=C[C@H]1C[N@@]2CC[C@H]1C[C@H]2[C@H](O)c1ccnc2ccc(OC)cc12 [quinine]
pKa of quinoline nitrogen ([1]; 4-aminoquinoline nitrogen of chloroquine vs quinoline nitrogen of quinine): 5.2 | ability to bind DNA in gel shift assay (plasmid DNA): inability
